Key:
[1] = test system: Lingnan yellow-feathered, fast-growing, and large-sized broilers; conditions: for Average feed consumption / Average weight gain / Feed-to-meat ratio / Survival rate (%) / Relative weight gain rate (%): 50 mg/kg in feed (as copper ion), broilers aged 1 to 21 days; for Relative weight gain rate (%): relative to control group; for Physical characteristics of the experimental chickens: experimental groups of compounds 1-7
Text: (§1) Experimental animals: 900 one-day-old Lingnan yellow-feathered, fast-growing, and large-sized broilers; 150 weaned piglets;
(§2) Feeds: basal feed for chickens and basal feed for pigs that contain no antimicrobial drugs, copper sources and growth promoters;
(§3) Experimental samples: compound 1, compound 2, compound 3, compound 4, compound 5, compound 6, compound 7,
900 one-day-old Lingnan yellow-feathered, fast-growing, and large-sized broilers were randomly divided into 18 groups (50 broilers/group). […] The broilers had free access to food. The weight gain and feed conversion of the experimental chickens (aged from 1 to 21 days) in each experimental group were recorded.

weaned piglets = conditions: for Average weight gain / Feed-to-meat ratio / Survival rate (%) / Total feed consumption / Total weight gain / Relative weight gain rate (%): 50 mg/kg in feed (as copper ion), weaned piglets, 30 days; for Total feed consumption / Total weight gain: 10 pigs; for Relative weight gain rate (%): control group = 100; for Improvement in the feed conversion of the experimental pigs compared with compound 4: used at the same doses (50 mg/kg)
Text: as §1, §2, §3
150 weaned piglets were grouped according to Table 2 (10 piglets/group). […] The piglets had free access to food. The weight gain and feed conversion of the experimental pigs in each experimental group were recorded within 30 days after […] weaning.

[2] = test system: black carp (subyearlings); assay: Use of aspartic acid copper complex in aquaculture feeds (black carp breeding experiment); format: in vivo; conditions: 30 mg/kg in feed (as copper ions), 8 weeks
Description: Experimental fishes: The experimental fishes used were black carp (subyearlings), which were provided by the Dafeng fish nursery (Huizhou city, Guangdong province). Healthy and active fingerling black carps (uniform in size) were fed for 4 weeks in a big net cage (4×2×1.5 m^3) and then the formal breeding experiment was carried out. The experimental systems were small floating net cages (1.1×1.1×1.1 m^3 in size). Each small net cage was provided with an air-filling head, which allowed for continuous inflation of the cages for 24 h a day. The small net cages and the acclimatization net cage were all placed in a 3500 m^2 pond in the experimental field. […] During the trial, 480 black carps (fasted for 1 d) were randomly divided into 10 groups, with 4 replicates for each group and 12 fishes in each replicate. After weighing as a whole, the black carps were randomly placed into […] and fed with different experimental feeds.
Experimental feeds: The experimental feeds were formulated following the formula in Table 5. According to Table 6, different copper element supplements (calculated based on the copper ions) were added to the feeds in different experimental groups, respectively. The feed raw materials were subjected to ultrafine grinding and then granulated into floating expanded feeds (3 mm) using an expansion machine from Jiangsu Muyang Corporation. The demolding temperature was 130° C. 3% soybean oil was externally sprayed using an oil spraying device. The finished product was sealed and stored in a cool place for later use.
Experimental management: During the trial, the carps were manually fed in a restricted dose. The feeding dose was adjusted once a week, and the doses for all groups (based on the initial body weight) were completely consistent. The carps were fed twice a day (at 7:30 and 15:00). The experiment lasted for 8 weeks. During the trial, the water quality was regularly monitored, and throughout the breeding, the water temperature was kept at 26.88±3.08° C., DO>5.0 mg O L^−1, pH 7.8, ammonia nitrogen<0.50 mg NL^−1, and nitrite-nitrogen<0.05 mg N L^−1.
Parametric statistics: During the trial, the carps in each net cage were weighed as a whole one day after discontinuation of feeding, and the average weight gain (g) and feed-to-meat ratio were calculated. The calculation formulas are as follows:
Average weight gain (g)=Average final weight−Average initial weight; Feed-to-meat ratio=Food intake/Weight gain of fishes;

[3] = 50 mg/kg (as copper ion), versus control

N[C@@H](CC(=O)[O-])C(=O)[O-].O.O.[Cu+2] [Compound 2, [(Cu(II))(L-Asp)(H2O)2]. (H2O)0.34]
Average feed consumption [1]: 908 g
Average weight gain [1]: 509 g
Feed-to-meat ratio [1]: 1.783
Survival rate (%) [1]: 100%
Relative weight gain rate (%) [1]: 107.4%
Physical characteristics of the experimental chickens [1]: normal physical characteristics
Average weight gain (weaned piglets): 12.30 kg
Feed-to-meat ratio (weaned piglets): 2.116
Survival rate (%) (weaned piglets): 100%
Total feed consumption (weaned piglets): 260.21 kg
Total weight gain (weaned piglets): 123.0 kg
Relative weight gain rate (%) (weaned piglets): 112.8%
Improvement in the feed conversion of the experimental pigs compared with compound 4 (weaned piglets): about 2 fold
Average weight gain [2]: 368 g
Feed-to-meat ratio [2]: 1.359

N[C@@H](CC(=O)[O-])C(=O)[O-].O.O.[Cu+2] [Compound 3, [(Cu(II))(L-Asp)(H2O)2]·(H2O)0.62]
Average feed consumption [1]: 919 g
Average weight gain [1]: 514 g
Feed-to-meat ratio [1]: 1.788
Survival rate (%) [1]: 100%
Relative weight gain rate (%) [1]: 108.4%
Physical characteristics of the experimental chickens [1]: normal physical characteristics
Average weight gain (weaned piglets): 11.92 kg
Feed-to-meat ratio (weaned piglets): 2.114
Survival rate (%) (weaned piglets): 100%
Total feed consumption (weaned piglets): 251.97 kg
Total weight gain (weaned piglets): 119.2 kg
Relative weight gain rate (%) (weaned piglets): 109.4%
Improvement in the feed conversion of the experimental pigs compared with compound 4 (weaned piglets): about 2 fold
Average weight gain [2]: 361 g
Feed-to-meat ratio [2]: 1.385

N[C@@H](CC(=O)[O-])C(=O)[O-].[Cu+2] [Compound 4, [(Cu(II))(L-Asp)]]
Feed conversion decreased by [1, 3]: 3.23%
Relative weight gain rate increased by [1, 3]: 7.2%
Average feed consumption [1]: 924 g
Average weight gain [1]: 508 g
Feed-to-meat ratio [1]: 1.819
Survival rate (%) [1]: 100%
Relative weight gain rate (%) [1]: 107.2%
Physical characteristics of the experimental chickens [1]: normal physical characteristics
Average weight gain (weaned piglets): 11.67 kg
Feed-to-meat ratio (weaned piglets): 2.208
Survival rate (%) (weaned piglets): 100%
Total feed consumption (weaned piglets): 257.63 kg
Total weight gain (weaned piglets): 116.7 kg
Relative weight gain rate (%) (weaned piglets): 107.06%
Average weight gain [2]: 344 g
Feed-to-meat ratio [2]: 1.453

Reference: patent US20240366553A1, “ASPARTIC ACID COPPER COMPLEX, AND USE THEREOF” (GUANGZHOU INSIGHTER BIOTECHNOLOGY CO., LTD., priority 2021, published 2024)
